Measurements published in patent US9765092B2, “Tricyclic piperidine compounds” (ACTELION PHARMACEUTICALS LTD, priority 2013, dated 2017).

Biological target: human TPH1 (Homo sapiens (Human), UniProt P17752)
Assay: Biochemical in vitro assay using fluorescence readout (TPH1 inhibition)
Settings: full length human TPH1, 40 μM L-tryptophan, 15° C., 60 minutes, fluorescence at 540 nm; mean if determined several times

Sequence of human TPH1 (P17752 whole entry): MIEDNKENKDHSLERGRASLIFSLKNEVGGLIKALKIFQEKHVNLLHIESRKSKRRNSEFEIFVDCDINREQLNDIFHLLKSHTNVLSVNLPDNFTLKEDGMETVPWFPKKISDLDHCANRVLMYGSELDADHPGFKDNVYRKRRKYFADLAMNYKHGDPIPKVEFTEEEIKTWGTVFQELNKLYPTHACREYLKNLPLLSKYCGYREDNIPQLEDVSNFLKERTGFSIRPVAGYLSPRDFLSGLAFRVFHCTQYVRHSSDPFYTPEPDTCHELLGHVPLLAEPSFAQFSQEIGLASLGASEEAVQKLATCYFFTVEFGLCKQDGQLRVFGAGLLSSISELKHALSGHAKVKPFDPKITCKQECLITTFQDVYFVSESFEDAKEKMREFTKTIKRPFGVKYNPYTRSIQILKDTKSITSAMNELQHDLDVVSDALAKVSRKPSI

Q: How did the IC50 turn out when Cc1nn2c3c(nc2s1)CCN(C(=O)COc1ccc(C(F)(F)F)cc1Cl)C3c1cc(C(=O)N(C)C)cs1 (stereo not shown) [Example 1.9.3, 5-(6-(2-(2-Chloro-4-(trifluoromethyl)phenoxy)acetyl)-2-methyl-5,6,7,8-tetrahydro-[1,3,4]thiadiazolo[2′,3′:2,3]imidazo[4,5-c]pyridin-5-yl)-N,N-dimethylthiophene-3-carboxamide] was run?
A: 0.077 µM

Q: Which IC50 does the source give for Cc1nn2c3c(nc2s1)CCN(C(=O)COc1ccc(C(=O)N(C)C)nc1Cl)C3c1ccc(C(=O)N(C)C)o1 (stereo not shown) [Example 1.40.1, 6-Chloro-5-(2-(5-(5-(dimethylcarbamoyl)furan-2-yl)-2-methyl-7,8-dihydro[1,3,4]thiadiazolo[2′,3′:2,4]imidazo[4,5-c]pyridin-6(5H)-yl)-2-oxoethoxy)-N,N-dimethylpicolinamide] here?
A: 0.09 µM

Same assay, conditions: human TPH1, fluorescence readout

Q: For CCOC(=O)c1coc(C2c3c(nc4sc(C)nn34)CCN2C(=O)COc2ccc(N3CCOCC3)nc2Cl)n1 (stereo not shown) [Example 1.29.1, Ethyl 2-(6-(2-((2-chloro-6-morpholinopyridin-3-yl)oxy)acetyl)-2-methyl-5,6,7,8-tetrahydro-[1,3,4]thiadiazolo [2′,3′:2,3]imidazo[4,5-c]pyridin-5-yl)oxazole-4-carboxylate], which IC50 is on record?
A: 0.02 µM

Q: For CCc1nc(C)c(C2c3c(nc4sc(C)nn34)CCN2C(=O)COc2ccc(NS(C)(=O)=O)nc2Cl)s1 (stereo not shown) [Example 1.72.1, N-(6-chloro-5-(2-(5-(2-ethyl-4-methylthiazol-5-yl)-2-methyl-7,8-dihydro-[1,3,4]thiadiazolo[2′,3′:2,3]imidazo-[4,5-c]pyridin-6(5H)-yl)-2-oxoethoxy)pyridin-2-yl)methanesulfonamide], which IC50 is on record?
A: 0.022 µM

Q: With CCc1nc(NS(C)(=O)=O)ccc1OCC(=O)N1CCc2nc3sc(C(F)(F)F)nn3c2C1c1ncc(C)cc1F (stereo not shown) [Example 5.2.2, N-(6-ethyl-5-(2-(5-(3-fluoro-5-methylpyridin-2-yl)-2-(trifluoromethyl)-7,8-dihydro-[1,3,4]thiadiazolo[2′,3′:2,3]imidazo[4,5-c]pyridin-6(5H)-yl)-2-oxoethoxy)pyridin-2-yl)methanesulfonamide] as the molecule, how does the IC50 read?
A: 0.042 µM

Q: How did the IC50 turn out when Cc1nn2c3c(nc2s1)CCN(C(=O)COc1ccc(N2CCOCC2)cc1Cl)C3c1ccc(Cl)cc1F (stereo not shown) [Example 1.4.3, 1-(5-(4-chloro-2-fluorophenyl)-2-methyl-7,8-dihydro-[1,3,4]thiadiazolo[2′,3′:2,3]imidazo[4,5-c]pyridin-6(5H)-yl)-2-(2-chloro-4-morpholinophenoxy)ethanone] was run?
A: 0.004 µM

Q: Which IC50 does the source give for COC(=O)c1cnc(C2c3c(nc4sc(C)nn34)CCN2C(=O)COc2ccc(C(F)(F)F)cc2Cl)s1 (stereo not shown) [Example 1.28.2, Methyl 2-(6-(2-(2-chloro-4-(trifluoromethyl)phenoxy)acetyl)-2-methyl-5,6,7,8-tetrahydro-[1,3,4]thiadiazolo [2′,3′:2,3]imidazo[4,5-c]pyridin-5-yl)thiazole-5-carboxylate] here?
A: 0.04 µM

Q: How did the IC50 turn out when Cc1nn2c3c(nc2s1)CCN(C(=O)C(C)(C)Oc1ccc(NS(C)(=O)=O)nc1Cl)C3c1ccc(Cl)cc1F (stereo not shown) [Example 1.4.56, N-(6-chloro-5-((1-(5-(4-chloro-2-fluorophenyl)-2-methyl-7,8-dihydro-[1,3,4]thiadiazolo[2′,3′:2,3]imidazo[4,5-c]pyridin-6(5H)-yl)-2-methyl-1-oxopropan-2-yl)oxy)pyridin-2-yl)methanesulfonamide] was run?
A: 0.567 µM

Q: How did the IC50 turn out when Cc1nn2c3c(nc2s1)CCN(C(=O)COc1ccc(-c2ncco2)nc1Cl)C3c1ccc(C2CC2)cc1F (stereo not shown) [Example 1.6.29, 2-((2-chloro-6-(oxazol-2-yl)pyridin-3-yl)oxy)-1-(5-(4-cyclopropyl-2-fluorophenyl)-2-methyl-7,8-dihydro-[1,3,4]thiadiazolo[2′,3′:2,3]imidazo[4,5-c]pyridin-6(5H)-yl)ethanone] was run?
A: 0.017 µM

Q: With Cc1nn2c3c(nc2s1)CCN(C(=O)COc1ccc(C(=O)N(C)C)nc1Cl)C3c1cnc(-c2ccccc2)s1 (stereo not shown) [Example 1.60.1, 6-chloro-N,N-dimethyl-5-(2-(2-methyl-5-(2-phenylthiazol-5-yl)-7,8-dihydro-[1,3,4]thiadiazolo[2′,3′:2,3]imidazo[4,5-c]pyridin-6(5H)-yl)-2-oxoethoxy)picolinamide] as the molecule, how does the IC50 read?
A: 0.014 µM

Q: Which IC50 does the source give for Cc1cnc([C@H]2c3c(nc4sc(C)nn34)CCN2C(=O)COc2ccc(N(C)S(C)(=O)=O)nc2Cl)c(F)c1 [Example 1.31.15, (R)-N-(6-chloro-5-(2-(5-(3-fluoro-5-methylpyridin-2-yl)-2-methyl-7,8-dihydro-[1,3,4]thiadiazolo[2′,3′:2,3]-imidazo[4,5-c]pyridin-6(5H)-yl)-2-oxoethoxy)pyridin-2-yl)-N-methylmethanesulfonamide] here?
A: 0.009 µM

Q: For Cc1ccccc1OCC(=O)N1CCc2nc3sccn3c2C1c1cccnc1F (stereo not shown) [Example 6.2.4, 1-(5-(2-fluoropyridin-3-yl)-7,8-dihydrothiazolo[2′,3′:2,3]-imidazo[4,5-c]pyridin-6(5H)-yl)-2-(o-tolyloxy)ethanone], which IC50 is on record?
A: 0.266 µM

Q: Cc1nn2c3c(nc2s1)CCN(C(=O)COc1ccc(N(C)S(C)(=O)=O)nc1Cl)C3c1ccc(Cl)cc1F (stereo not shown) [Example 1.4.48, N-(6-chloro-5-(2-(5-(4-chloro-2-fluorophenyl)-2-methyl-7,8-dihydro-[1,3,4]thiadiazolo[2′,3′:2,3]imidazo[4,5-c]pyridin-6(5H)-yl)-2-oxoethoxy)pyridin-2-yl)-N-methylmethanesulfonamide] was tested. Which IC50 did it give?
A: 0.01 µM

Q: How did the IC50 turn out when Cc1nn2c3c(nc2s1)CCN(C(=O)COc1ccc(N(C)C)nc1Cl)C3c1ccc(C2CC2)cc1F (stereo not shown) [Example 1.6.22, 2-((2-chloro-6-(dimethylamino)pyridin-3-yl)oxy)-1-(5-(4-cyclopropyl-2-fluorophenyl)-2-methyl-7,8-dihydro-[1,3,4]thiadiazolo[2′,3′:2,3]imidazo[4,5-c]pyridin-6(5H)-yl)ethanone] was run?
A: 0.003 µM

Q: For COc1ccc(C2c3c(nc4sccn34)CCN2C(=O)COc2ccc(Cl)cc2Cl)cc1OC (stereo not shown) [Example 6.1.3, 2-(2,4-dichlorophenoxy)-1-(5-(3,4-dimethoxyphenyl)-7,8-dihydrothiazolo[2′,3′:2,3]imidazo[4,5-c]pyridin-6(5H)-yl)ethanone], which IC50 is on record?
A: 0.007 µM

Q: Which IC50 does the source give for Cc1nn2c3c(nc2s1)CCN(C(=O)COc1ccc(C#N)nc1Cl)C3c1ncc(C2CC2)cc1F (stereo not shown) [Example 1.14.4, 6-chloro-5-(2-(5-(5-cyclopropyl-3-fluoropyridin-2-yl)-2-methyl-7,8-dihydro-[1,3,4]thiadiazolo[2′,3′:2,3]imidazo[4,5-c]pyridin-6(5H)-yl)-2-oxoethoxy)picolinonitrile] here?
A: 0.017 µM

Q: With CN(C)C(=O)c1cc(F)c(C2c3c(nc4sccn34)CCN2C(=O)COc2ccc(NS(C)(=O)=O)cc2Cl)s1 (stereo not shown) [Example 6.9.1, 5-(6-(2-(2-chloro-4-(methylsulfonamido)phenoxy)-acetyl)-5,6,7,8-tetrahydrothiazolo[2′,3′:2,3]imidazo[4,5-c]pyridin-5-yl)-4-fluoro-N,N-dimethylthiophene-2-carboxamide] as the molecule, how does the IC50 read?
A: 0.002 µM

Q: For Cc1ccccc1OCC(=O)N1CCc2nc3sccn3c2C1c1nc2ccccc2s1 (stereo not shown) [Example 6.12.2, 1-(5-(benzo[d]thiazol-2-yl)-7,8-dihydrothiazolo-[2′,3′:2,3]imidazo[4,5-c]pyridin-6(5H)-yl)-2-(o-tolyloxy)-ethanone], which IC50 is on record?
A: 0.115 µM

Q: How did the IC50 turn out when O=C(COc1ccc(-c2ncco2)nc1Cl)N1CCc2nc3scnn3c2C1c1ccc(Cl)cc1F (stereo not shown) [Example 2.1.3] was run?
A: 0.008 µM
